In ChEMBL document CHEMBL6096703 (J Med Chem, 2025):
Active and inactive are the calls of the source. The calls are words filed in the database; no cut-off is given here.

Tests used:
MDA-MB-436 [1] = assay: Induction of DNA damage in human MDA-MB-436 cells assessed as increase in tail intensity at 100 to 1000 nM incubated for 3 days by PI staining based fluorescence microscopic analysis; type: functional, cell-based; conditions: dose 100-1000 nM, time 3.0 day
[2] = Sub-acute toxicity in Kunming mouse assessed as change LDH2 level at 30 to 100 mg/kg administered via gavage once every other day for 14 days; type: organism-based; conditions: in vivo, po, 336 h, dose 30-100 mg/kg, time 14 day
[3] = Sub-acute toxicity in Kunming mouse assessed as change ALTL level at 100 to 300 mg/kg administered via gavage for 14 days; type: organism-based; conditions: in vivo, po, 336 h, dose 100-300 mg/kg, time 14 day
DLD-1 = assay: Inhibition of colony formation in wild type human DLD-1 cells assessed as reduction in survival rate at 2.5 to 20 uM incubated for 10 days by crystal violet staining based assay; type: functional, cell-based; conditions: dose 2.5-20 µM, time 10.0 day
[4] = Sub-acute toxicity in Kunming mouse assessed as change ALB2 level at 30 to 100 mg/kg administered via gavage once every other day for 14 days; type: organism-based; conditions: in vivo, po, 336 h, dose 30-100 mg/kg, time 14 day
[5] = Toxicity in female NOD/SCID mouse xenografted with human MDA-MB-436 cells assessed as histological changes in heart at 3 mg/kg, po administered once every other day for 28 days by H and E staining based analysis; type: organism-based; conditions: in vivo, 672 h, time 28 day
[6] = Sub-acute toxicity in Kunming mouse assessed as change UREAL level at 30 to 100 mg/kg administered via gavage once every other day for 14 days; type: organism-based; conditions: in vivo, po, 336 h, dose 30-100 mg/kg, time 14 day
[7] = Sub-acute toxicity in Kunming mouse assessed as change CREA2 level at 100 to 300 mg/kg administered via gavage for 14 days; type: organism-based; conditions: in vivo, po, 336 h, dose 100-300 mg/kg, time 14 day
[8] = Cmax in male Balb/c mouse at 1 mg/kg, po measured upto 96 hrs by LC-MS/MS analysis; type: ADME, organism-based; conditions: in vivo
[9] = Sub-acute toxicity in Kunming mouse assessed as change CREA2 level at 30 to 100 mg/kg administered via gavage once every other day for 14 days; type: organism-based; conditions: in vivo, po, 336 h, dose 30-100 mg/kg, time 14 day
MDA-MB-436 [10] = assay: Induction of apoptosis in human MDA-MB-436 cells assessed as late apoptotic cells at 10 nM incubated for 3 days by Annexin V/ PI staining based flow cytometry (reference value: 6.57%); type: functional; conditions: time 3 day
[11] = Sub-acute toxicity in Kunming mouse assessed as change LDH2 level at 100 to 300 mg/kg administered via gavage for 14 days; type: organism-based; conditions: in vivo, po, 336 h, dose 100-300 mg/kg, time 14 day
[12] = Sub-acute toxicity in Kunming mouse assessed as change CK level at 100 to 300 mg/kg administered via gavage for 14 days; type: organism-based; conditions: in vivo, po, 336 h, dose 100-300 mg/kg, time 14 day
MDA-MB-436 [13] = assay: Induction of cell cycle arrest in human MDA-MB-436 cells assessed as accumulation of cells at G2/M phase at 100 nM incubated for 3 days by PI staining based flow cytometric analysis (Rvb =24.88%); type: functional; conditions: time 3 day
[14] = molecular target: Poly [ADP-ribose] polymerase 1 (Homo sapiens, UniProt P09874); assay: Inhibition of PARP1 (unknown origin) at 1 nM preincubated with compound for 10 mins followed by DNA and NAD+ addition and measured after 60 mins by chemiluminescence based envision reader analysis relative to control; conditions: time 70.0 min
Sequence of Poly [ADP-ribose] polymerase 1 (P09874 whole entry): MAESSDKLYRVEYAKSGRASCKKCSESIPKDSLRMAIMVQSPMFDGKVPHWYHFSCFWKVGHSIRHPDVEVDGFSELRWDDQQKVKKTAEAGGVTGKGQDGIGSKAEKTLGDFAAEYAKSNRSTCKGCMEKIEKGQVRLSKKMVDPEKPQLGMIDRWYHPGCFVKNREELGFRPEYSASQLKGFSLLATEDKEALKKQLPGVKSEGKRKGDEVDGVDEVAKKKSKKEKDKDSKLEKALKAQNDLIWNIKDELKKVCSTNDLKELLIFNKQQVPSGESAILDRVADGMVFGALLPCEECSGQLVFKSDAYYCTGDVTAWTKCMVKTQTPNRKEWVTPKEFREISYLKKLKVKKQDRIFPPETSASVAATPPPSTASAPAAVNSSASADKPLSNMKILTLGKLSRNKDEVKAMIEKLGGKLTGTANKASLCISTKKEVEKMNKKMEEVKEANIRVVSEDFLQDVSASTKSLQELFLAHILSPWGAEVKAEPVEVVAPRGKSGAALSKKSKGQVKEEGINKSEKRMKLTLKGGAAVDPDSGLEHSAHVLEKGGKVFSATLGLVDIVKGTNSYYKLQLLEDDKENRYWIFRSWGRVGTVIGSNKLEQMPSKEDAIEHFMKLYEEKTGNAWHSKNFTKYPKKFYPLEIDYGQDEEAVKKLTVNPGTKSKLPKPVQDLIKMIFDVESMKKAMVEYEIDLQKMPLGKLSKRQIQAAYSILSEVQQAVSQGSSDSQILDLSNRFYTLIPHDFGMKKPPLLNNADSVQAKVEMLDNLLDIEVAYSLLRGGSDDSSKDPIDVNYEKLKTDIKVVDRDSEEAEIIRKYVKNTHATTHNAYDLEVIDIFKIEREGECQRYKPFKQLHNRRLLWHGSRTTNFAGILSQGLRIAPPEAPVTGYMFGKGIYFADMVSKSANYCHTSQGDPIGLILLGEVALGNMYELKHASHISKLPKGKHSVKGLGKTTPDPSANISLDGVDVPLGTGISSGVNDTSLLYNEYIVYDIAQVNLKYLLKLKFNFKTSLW

[15] = molecular target: T1, Poly [ADP-ribose] polymerase 2 (Homo sapiens, UniProt Q9UGN5); assay: Inhibition of PARP2 in PARP1 knockout human A549 cells preincubated with compound for 1 hr followed by H2O2 addition and measured after 5 mins by selective targeting PARylation inhibition assay; type: cell-based
T1 sequence (Q9UGN5 whole entry): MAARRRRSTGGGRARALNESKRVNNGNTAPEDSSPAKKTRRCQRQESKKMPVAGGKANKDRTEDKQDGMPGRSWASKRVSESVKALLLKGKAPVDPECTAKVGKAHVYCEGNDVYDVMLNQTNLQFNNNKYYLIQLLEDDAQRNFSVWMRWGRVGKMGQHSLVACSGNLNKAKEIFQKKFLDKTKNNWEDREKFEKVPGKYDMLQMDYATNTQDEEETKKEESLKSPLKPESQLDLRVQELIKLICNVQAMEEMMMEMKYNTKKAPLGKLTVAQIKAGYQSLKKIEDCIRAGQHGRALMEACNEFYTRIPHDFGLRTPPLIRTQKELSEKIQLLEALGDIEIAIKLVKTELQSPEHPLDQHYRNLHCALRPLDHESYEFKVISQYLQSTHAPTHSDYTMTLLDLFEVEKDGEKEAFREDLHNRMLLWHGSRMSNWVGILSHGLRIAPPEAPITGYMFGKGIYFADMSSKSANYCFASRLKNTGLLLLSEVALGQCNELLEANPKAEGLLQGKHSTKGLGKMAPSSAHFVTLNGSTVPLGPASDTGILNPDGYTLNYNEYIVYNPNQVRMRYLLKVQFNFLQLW

[16] = Acute toxicity in Kunming mouse assessed as change in cellular morphology of liver at 100 mg/kg administered once every other day via gavage for 14 days by H and E staining based analysis; type: organism-based; conditions: in vivo, po, 336 h, time 14 day
[17] = Cmax in rat at 2.5 mg/kg, iv measured upto 96 hrs by LC-MS/MS analysis; type: ADME, organism-based; conditions: in vivo
[18] = Sub-acute toxicity in Kunming mouse assessed as change UREAL level at 100 to 300 mg/kg administered via gavage for 14 days; type: organism-based; conditions: in vivo, po, 336 h, dose 100-300 mg/kg, time 14 day
MDA-MB-436 [19] = assay: Antiproliferative activity against human MDA-MB-436 cells assessed as inhibition of cell proliferation at 100 nM incubated for 7 days by CCK-8 assay relative to control; type: functional; conditions: MDA-MB-436, 168 h, time 7 day
MDA-MB-436 [20] = assay: Antitumor activity against luciferase tagged human MDA-MB-436 cells xenografted in female NOD-SCID mouse assessed as tumor regression by measuring bioluminescence signal administered orally once a day for 34 days by bioluminescence imaging analysis; type: functional, cell-based; conditions: dose 3-10 mg/kg, route po, time 34.0 day
[21] = Sub-acute toxicity in Kunming mouse assessed as change ASTL level at 30 to 100 mg/kg administered via gavage once every other day for 14 days; type: organism-based; conditions: in vivo, po, 336 h, dose 30-100 mg/kg, time 14 day
[22] = molecular target: T1, Poly [ADP-ribose] polymerase 2; assay: Inhibition of PARP2 (unknown origin) at 1 uM preincubated with compound for 10 mins followed by DNA and NAD+ addition and measured after 60 mins by chemiluminescence based envision reader analysis relative to control; conditions: time 70.0 min
[23] = molecular target: T1, Poly [ADP-ribose] polymerase 2; assay: Inhibition of PARP2 (unknown origin) preincubated with compound for 10 mins followed by DNA and NAD+ addition and measured after 60 mins by chemiluminescence based envision reader analysis
[24] = Sub-acute toxicity in Kunming mouse assessed as change CK level at 30 to 100 mg/kg administered via gavage once every other day for 14 days; type: organism-based; conditions: in vivo, po, 336 h, dose 30-100 mg/kg, time 14 day
[25] = Tmax in rat at 2.5 mg/kg, po measured upto 96 hrs by LC-MS/MS analysis; type: ADME, organism-based; conditions: in vivo

For `CCc1cc2ncc(CN3CC=C(c4ccc(C#N)cn4)CC3)cc2[nH]c1=O`, the Activity (MDA-MB-436 [1]) was “Active”, the Activity [2] was “Non-toxic” and the Activity [3] was “Non-toxic”. For the same compound, the inhibition (DLD-1) was “inactive”, the Activity [4] was “Non-toxic” and the Activity [5] was “Non-toxic”. The Activity [6] was “Non-toxic”, the Activity [7] was “Non-toxic” and the Cmax [8] was 6630 ng/mL. For the same compound, the Activity [9] was “Non-toxic”, the Activity (MDA-MB-436 [10]) was 9.94% and the Activity [11] was “Non-toxic”. For the same compound, the Activity [12] was “Non-toxic”, the Activity (MDA-MB-436 [13]) was 37.31% and the inhibition [14] was 93.6%. For the same compound, the IC50 [15] was 5190 nM, the Activity [16] was “Non-toxic” and the Cmax [17] was 13900 ng/mL. For the same compound, the Activity [18] was “Non-toxic”, the inhibition at 0.1 µM (MDA-MB-436 [19]) was 82.2% and the Activity (MDA-MB-436 [20]) was “Dose-dependent-effect”. The Activity [21] was “Non-toxic”, the inhibition [22] was 72.9% and the IC50 [23] was 122 nM. For the same compound, the Activity [24] was “Non-toxic” and the Tmax [25] was 8 h.
